Test results as given in patent US12077503B2, “Substituted cyclic amides and their use as herbicides” (FMC CORPORATION, priority 2015, dated 2024).

Key:
Assay in all cases: Test E preemergence
Format in all cases: in vivo
Conditions in all cases: scale 0 to 100
[1] = tested on: Kochia (Kochia scoparia)
Procedure, shortened: (§1)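 Seeds planted in silt loam were treated preemergence, and plants in Redi-Earth peat medium at 2 to 18 cm (1- to 4-leaf) were treated postemergence, with test chemicals in non-phytotoxic solvent with surfactant. Plants kept in greenhouse 14 to 21 d, then visually rated against controls on a 0–100 scale (0 no effect, 100 complete control).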

[2] = tested on: beggarticks (hairy beggarticks, Bidens pilosa)
Procedure, shortened: as §1

[3] = tested on: corn (Zea mays)
Procedure, shortened: as §1

[4] = tested on: crabgrass, Brazil (Brazilian crabgrass, Digitaria horizontalis)
Procedure, shortened: as §1

[5] = tested on: dayflower, VA (Virginia dayflower, Commelina virginica)
Procedure, shortened: as §1

[6] = tested on: foxtail, giant (giant foxtail, Setaria faberii)
Procedure, shortened: as §1

[7] = tested on: goosegrass (Eleusine indica)
Procedure, shortened: as §1

[8] = tested on: horseweed (Conyza canadensis)
Procedure, shortened: as §1

[9] = tested on: johnsongrass (Sorghum halepense)
Procedure, shortened: as §1

[10] = tested on: morningglory (Ipomoea coccinea)
Procedure, shortened: as §1

[11] = tested on: nightshade (eastern black nightshade, Solanum ptycanthum)
Procedure, shortened: as §1

[12] = tested on: nutsedge, yellow (yellow nutsedge, Cyperus esculentus)
Procedure, shortened: as §1

[13] = tested on: pigweed, palmer (palmer pigweed, Amaranthus palmeri)
Procedure, shortened: as §1

[14] = tested on: ragweed (common ragweed, Ambrosia elatior)
Procedure, shortened: as §1

[15] = tested on: ryegrass, Italian (Italian ryegrass, Lolium multiflorum)
Procedure, shortened: as §1

[16] = tested on: surinam grass (Brachiaria decumbens)
Procedure, shortened: as §1

[17] = tested on: velvetleaf (Abutilon theophrasti)
Procedure, shortened: as §1

[18] = tested on: waterhemp (common waterhemp, Amaranthus rudis)
Procedure, shortened: as §1

CN1CC(c2cccc(OC(F)(F)C(F)F)c2)C(C(=O)Nc2cccc(F)c2F)C1=O (stereo not drawn) [Compound 392]
Plant response rating: Kochia ([1]; 31 g ai/ha): 85
Plant response rating: Kochia ([1]; 62 g ai/ha): 90
Plant response rating: Kochia ([1]; 125 g ai/ha): 80
Plant response rating: Kochia ([1]; 250 g ai/ha): 90
Plant response rating: Beggarticks ([2]; 31 g ai/ha): 0
Plant response rating: Beggarticks ([2]; 62 g ai/ha): 0
Plant response rating: Beggarticks ([2]; 125 g ai/ha): 0
Plant response rating: Beggarticks ([2]; 250 g ai/ha): 0
Plant response rating: Corn ([3]; 31 g ai/ha): 0
Plant response rating: Corn ([3]; 62 g ai/ha): 15
Plant response rating: Corn ([3]; 125 g ai/ha): 50
Plant response rating: Corn ([3]; 250 g ai/ha): 70
Plant response rating: Crabgrass, Brazil ([4]; 31 g ai/ha): 98
Plant response rating: Crabgrass, Brazil ([4]; 62 g ai/ha): 98
Plant response rating: Crabgrass, Brazil ([4]; 125 g ai/ha): 98
Plant response rating: Crabgrass, Brazil ([4]; 250 g ai/ha): 98
Plant response rating: Dayflower, VA ([5]; 31 g ai/ha): 0
Plant response rating: Dayflower, VA ([5]; 62 g ai/ha): 0
Plant response rating: Dayflower, VA ([5]; 125 g ai/ha): 0
Plant response rating: Dayflower, VA ([5]; 250 g ai/ha): 35
Plant response rating: Foxtail, Giant ([6]; 31 g ai/ha): 90
Plant response rating: Foxtail, Giant ([6]; 62 g ai/ha): 95
Plant response rating: Foxtail, Giant ([6]; 125 g ai/ha): 98
Plant response rating: Foxtail, Giant ([6]; 250 g ai/ha): 98
Plant response rating: Goosegrass ([7]; 31 g ai/ha): 85
Plant response rating: Goosegrass ([7]; 62 g ai/ha): 90
Plant response rating: Goosegrass ([7]; 125 g ai/ha): 95
Plant response rating: Goosegrass ([7]; 250 g ai/ha): 95
Plant response rating: Horseweed ([8]; 31 g ai/ha): 0
Plant response rating: Horseweed ([8]; 62 g ai/ha): 0
Plant response rating: Horseweed ([8]; 125 g ai/ha): 98
Plant response rating: Horseweed ([8]; 250 g ai/ha): 100
Plant response rating: Johnsongrass ([9]; 31 g ai/ha): 25
Plant response rating: Johnsongrass ([9]; 62 g ai/ha): 30
Plant response rating: Johnsongrass ([9]; 125 g ai/ha): 50
Plant response rating: Johnsongrass ([9]; 250 g ai/ha): 95
Plant response rating: Morningglory ([10]; 31 g ai/ha): 0
Plant response rating: Morningglory ([10]; 62 g ai/ha): 0
Plant response rating: Morningglory ([10]; 125 g ai/ha): 0
Plant response rating: Morningglory ([10]; 250 g ai/ha): 0
Plant response rating: Nightshade ([11]; 31 g ai/ha): 20
Plant response rating: Nightshade ([11]; 62 g ai/ha): 80
Plant response rating: Nightshade ([11]; 125 g ai/ha): 90
Plant response rating: Nightshade ([11]; 250 g ai/ha): 90
Plant response rating: Nutsedge, Yellow ([12]; 31 g ai/ha): 0
Plant response rating: Nutsedge, Yellow ([12]; 62 g ai/ha): 0
Plant response rating: Nutsedge, Yellow ([12]; 125 g ai/ha): 0
Plant response rating: Nutsedge, Yellow ([12]; 250 g ai/ha): 0
Plant response rating: Pigweed, Palmer ([13]; 31 g ai/ha): 0
Plant response rating: Pigweed, Palmer ([13]; 62 g ai/ha): 20
Plant response rating: Pigweed, Palmer ([13]; 125 g ai/ha): 35
Plant response rating: Pigweed, Palmer ([13]; 250 g ai/ha): 90
Plant response rating: Ragweed ([14]; 31 g ai/ha): 0
Plant response rating: Ragweed ([14]; 62 g ai/ha): 0
Plant response rating: Ragweed ([14]; 125 g ai/ha): 0
Plant response rating: Ragweed ([14]; 250 g ai/ha): 65
Plant response rating: Ryegrass, Italian ([15]; 31 g ai/ha): 0
Plant response rating: Ryegrass, Italian ([15]; 62 g ai/ha): 10
Plant response rating: Ryegrass, Italian ([15]; 125 g ai/ha): 60
Plant response rating: Ryegrass, Italian ([15]; 250 g ai/ha): 70
Plant response rating: Surinam Grass ([16]; 31 g ai/ha): 0
Plant response rating: Surinam Grass ([16]; 62 g ai/ha): 0
Plant response rating: Surinam Grass ([16]; 125 g ai/ha): 15
Plant response rating: Surinam Grass ([16]; 250 g ai/ha): 30
Plant response rating: Velvetleaf ([17]; 31 g ai/ha): 0
Plant response rating: Velvetleaf ([17]; 62 g ai/ha): 20
Plant response rating: Velvetleaf ([17]; 125 g ai/ha): 50
Plant response rating: Velvetleaf ([17]; 250 g ai/ha): 75
Plant response rating: Waterhemp ([18]; 31 g ai/ha): 35
Plant response rating: Waterhemp ([18]; 62 g ai/ha): 80
Plant response rating: Waterhemp ([18]; 125 g ai/ha): 70
Plant response rating: Waterhemp ([18]; 250 g ai/ha): 90
